{"source": "ChEMBL document CHEMBL1159178", "about": "“The use of a proline ring as a conformational restraint in CCK-B receptor dipeptoids” (Bioorg Med Chem Lett, 1992)", "key": {"[1]": {"biological_target": "T1, Cholecystokinin receptor type A (Rattus norvegicus, UniProt P30551)", "T1 sequence (P30551 whole entry)": "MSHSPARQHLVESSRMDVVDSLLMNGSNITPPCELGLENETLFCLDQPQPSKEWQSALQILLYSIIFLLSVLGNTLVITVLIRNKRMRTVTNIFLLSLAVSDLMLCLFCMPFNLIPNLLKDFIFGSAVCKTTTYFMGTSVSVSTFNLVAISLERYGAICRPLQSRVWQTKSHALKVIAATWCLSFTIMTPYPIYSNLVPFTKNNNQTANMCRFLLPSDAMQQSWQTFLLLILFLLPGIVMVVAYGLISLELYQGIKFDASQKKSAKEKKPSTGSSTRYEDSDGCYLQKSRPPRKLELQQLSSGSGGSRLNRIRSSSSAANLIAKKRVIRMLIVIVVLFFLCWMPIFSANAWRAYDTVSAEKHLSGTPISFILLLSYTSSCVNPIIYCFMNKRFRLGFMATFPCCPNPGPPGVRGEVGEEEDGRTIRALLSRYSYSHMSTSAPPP", "assay": "Evaluated for in vitro binding affinity to cholecystokinin-A (CCK-A) receptor in homogenized rat pancreas using [125I]bolton hunter CCK-26-33 as radioligand; 770-2020"}, "[2]": {"biological_target": "T2, Gastrin/cholecystokinin type B receptor (Mus musculus, UniProt P56481)", "T2 sequence (P56481 whole entry)": "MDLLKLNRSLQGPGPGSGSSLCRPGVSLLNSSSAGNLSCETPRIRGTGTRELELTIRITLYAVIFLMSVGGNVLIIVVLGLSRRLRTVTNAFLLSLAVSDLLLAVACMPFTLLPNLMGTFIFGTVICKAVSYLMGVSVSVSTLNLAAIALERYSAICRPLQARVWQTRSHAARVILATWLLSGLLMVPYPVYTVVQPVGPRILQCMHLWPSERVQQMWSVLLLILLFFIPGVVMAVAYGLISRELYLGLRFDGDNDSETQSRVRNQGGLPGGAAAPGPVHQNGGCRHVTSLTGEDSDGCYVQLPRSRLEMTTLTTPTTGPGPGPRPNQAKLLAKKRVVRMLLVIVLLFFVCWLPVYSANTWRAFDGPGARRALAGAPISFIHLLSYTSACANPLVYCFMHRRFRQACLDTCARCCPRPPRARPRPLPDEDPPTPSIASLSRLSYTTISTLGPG", "assay": "Evaluated for in vitro binding affinity towards cholecystokinin-B (CCK-B) receptor in mouse cerebral cortex using [125I]bolton hunter CCK-26-33 as radioligand; 365-1590", "type": "tissue-based"}, "[3]": {"biological_target": "T1, Cholecystokinin receptor type A", "assay": "Evaluated for in vitro binding affinity to cholecystokinin-A (CCK-A) receptor in homogenized rat pancreas using [125I]bolton hunter CCK-26-33 as radioligand; 690-850"}, "[4]": {"biological_target": "T2, Gastrin/cholecystokinin type B receptor", "assay": "Evaluated for in vitro binding affinity towards cholecystokinin-B (CCK-B) receptor in mouse cerebral cortex using [125I]bolton hunter CCK-26-33 as radioligand; 4.2-8.9", "type": "tissue-based"}, "[5]": {"biological_target": "T1, Cholecystokinin receptor type A", "assay": "Evaluated for in vitro binding affinity to cholecystokinin-A (CCK-A) receptor in homogenized rat pancreas using [125I]bolton hunter CCK-26-33 as radioligand; 743-1710"}, "[6]": {"biological_target": "T2, Gastrin/cholecystokinin type B receptor", "assay": "Evaluated for in vitro binding affinity towards cholecystokinin-B (CCK-B) receptor in mouse cerebral cortex using [125I]bolton hunter CCK-26-33 as radioligand; 1790-2700", "type": "tissue-based"}}}
{"smiles": "CC(Cc1c[nH]c2ccccc12)(NC(=O)OC1C2CC3CC(C2)CC1C3)C(=O)NC(CO)Cc1ccccc1", "note": "(stereo unspecified)", "values": [{"measurement": "IC50", "setting": "[1]", "value": 1080, "unit": "nM"}, {"measurement": "IC50", "setting": "[2]", "value": 852, "unit": "nM"}]}
{"smiles": "O=C(NC(Cc1c[nH]c2ccccc12)C(=O)NC(CO)Cc1ccccc1)OC1C2CC3CC(C2)CC1C3", "note": "(stereo unspecified)", "values": [{"measurement": "IC50", "setting": "[3]", "value": 780, "unit": "nM"}, {"measurement": "IC50", "setting": "[4]", "value": 6.3, "unit": "nM"}]}
{"smiles": "O=C(OC1C2CC3CC(C2)CC1C3)N1CCCC1(Cc1c[nH]c2ccccc12)C(=O)NC(CO)Cc1ccccc1", "note": "(stereo unspecified)", "values": [{"measurement": "IC50", "setting": "[5]", "value": 1050, "unit": "nM"}, {"measurement": "IC50", "setting": "[6]", "value": 2080, "unit": "nM"}]}
